Reference: US7250408B2, “Glucocorticoid receptor antagonists for prophylaxis and therapy of glucocorticoid-mediated hypogonadism, of sexual dysfunction and/or infertility” (Bayer Schering Pharma AG, priority 2002, dated 2007)

Key:
Progesterone Receptor = target: T1, Progesterone Receptor (Homo sapiens, UniProt P06401); assay: Progesterone receptor binding, relative binding affinity (RBA); settings: RBA relative to progesterone = 100
T1 sequence (P06401 1-933): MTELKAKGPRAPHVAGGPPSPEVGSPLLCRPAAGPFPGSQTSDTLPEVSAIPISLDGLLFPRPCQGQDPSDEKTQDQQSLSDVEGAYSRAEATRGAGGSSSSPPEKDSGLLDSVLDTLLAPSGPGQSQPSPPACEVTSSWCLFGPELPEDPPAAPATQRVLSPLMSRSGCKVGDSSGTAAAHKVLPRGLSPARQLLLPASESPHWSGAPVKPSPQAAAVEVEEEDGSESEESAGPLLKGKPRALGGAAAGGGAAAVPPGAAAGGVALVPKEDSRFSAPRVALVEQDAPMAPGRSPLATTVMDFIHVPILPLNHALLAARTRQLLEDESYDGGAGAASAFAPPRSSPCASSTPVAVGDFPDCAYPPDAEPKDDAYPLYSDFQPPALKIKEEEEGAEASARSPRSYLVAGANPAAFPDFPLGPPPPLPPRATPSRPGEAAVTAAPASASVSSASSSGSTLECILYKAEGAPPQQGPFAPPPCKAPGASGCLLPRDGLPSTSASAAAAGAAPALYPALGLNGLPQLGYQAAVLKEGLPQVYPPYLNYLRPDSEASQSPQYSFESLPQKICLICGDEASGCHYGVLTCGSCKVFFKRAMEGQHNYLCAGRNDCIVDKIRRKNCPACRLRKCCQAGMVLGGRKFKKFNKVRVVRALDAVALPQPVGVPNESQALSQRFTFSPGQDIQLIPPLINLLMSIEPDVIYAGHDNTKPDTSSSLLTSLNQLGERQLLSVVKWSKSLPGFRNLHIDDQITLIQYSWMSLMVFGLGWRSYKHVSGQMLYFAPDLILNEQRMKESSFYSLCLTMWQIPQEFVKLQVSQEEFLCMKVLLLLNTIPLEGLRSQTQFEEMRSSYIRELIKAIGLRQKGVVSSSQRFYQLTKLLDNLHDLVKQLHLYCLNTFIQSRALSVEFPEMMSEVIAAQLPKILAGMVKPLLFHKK

Glucocorticoid Receptor = target: T2, Glucocorticoid Receptor (Homo sapiens, UniProt P04150); assay: Glucocorticoid receptor binding, relative binding affinity (RBA); settings: RBA relative to dexamethasone = 100
T2 sequence (P04150 1-777): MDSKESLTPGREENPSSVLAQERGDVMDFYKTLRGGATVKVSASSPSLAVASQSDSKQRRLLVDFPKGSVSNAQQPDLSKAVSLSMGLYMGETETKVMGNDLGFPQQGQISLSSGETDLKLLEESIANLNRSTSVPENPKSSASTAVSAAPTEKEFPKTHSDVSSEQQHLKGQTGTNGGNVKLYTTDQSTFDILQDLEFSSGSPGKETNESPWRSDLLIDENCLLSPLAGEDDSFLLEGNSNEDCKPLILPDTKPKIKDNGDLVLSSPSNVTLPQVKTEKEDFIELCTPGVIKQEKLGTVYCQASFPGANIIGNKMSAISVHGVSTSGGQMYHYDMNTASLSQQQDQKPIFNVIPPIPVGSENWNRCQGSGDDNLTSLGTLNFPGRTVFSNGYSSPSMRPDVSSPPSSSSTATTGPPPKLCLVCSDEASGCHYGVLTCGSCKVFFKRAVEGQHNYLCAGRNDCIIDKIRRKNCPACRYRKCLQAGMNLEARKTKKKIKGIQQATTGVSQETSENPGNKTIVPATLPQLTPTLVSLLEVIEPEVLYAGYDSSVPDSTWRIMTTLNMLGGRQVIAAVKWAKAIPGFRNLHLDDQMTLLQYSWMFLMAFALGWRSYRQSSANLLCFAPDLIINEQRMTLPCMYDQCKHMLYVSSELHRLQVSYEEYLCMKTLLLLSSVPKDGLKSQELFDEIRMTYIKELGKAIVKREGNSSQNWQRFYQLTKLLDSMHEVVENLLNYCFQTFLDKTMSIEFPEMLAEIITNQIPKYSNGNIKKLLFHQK

| SMILES | Relative Binding Affinity to Progesterone Receptor, % (Progesterone Receptor) [%] | Relative Binding Affinity to Glucocorticoid Receptor, % (Glucocorticoid Receptor) [%] |
| --- | --- | --- |
| COc1cccc(C2CC3(C)C(CCC3(O)C#CC(C)(C)C)C3CCC4=CC(=O)CCC4=C23)c1 (stereo not drawn) [Example 1, 21-tert.Butyl-17-hydroxy-11β-(3-methoxyphenyl)-19-nor-17α-pregna-4,9-dien-20-yn-3-one] | 3.4 | 85 |
| COc1cccc(C2CC3(C)C(CCC3(O)C#Cc3cccc(C=O)c3)C3CCC4=CC(=O)CCC4=C23)c1 (stereo not drawn) [Example 3, 3-{17-Hydroxy-11β-[3-(methoxy)phenyl]-3-keto-19-nor-17α-pregna-4,9-dien-20-yn-21-yl}benzaldehyde] | 4.3 | 159 |
| COc1cccc(C2CC3(C)C(CCC3(O)C#Cc3ccc(OC(C)=O)cc3)C3CCC4=CC(=O)CCC4=C23)c1 (centres unmarked) [Example 4] | 2.8 | 98 |
| COc1cccc(C2CC3(C)C(CCC3(O)C#Cc3ccc(-n4cccc4)cc3)C3CCC4=CC(=O)CCC4=C23)c1 (centres unmarked) [Example 5] | 3.4 | 57 |
| COc1cccc(C2CC3(C)C(CCC3(O)C#Cc3ccc(O)cc3)C3CCC4=CC(=O)CCC4=C23)c1 (centres unmarked) [Example 6] | 2.9 | 109 |
| COc1cccc(C2CC3(C)C(CCC3(O)C#Cc3ccc(S(C)(=O)=O)cc3)C3CCC4=CC(=O)CCC4=C23)c1 (stereo not drawn) [Example 7, 17-Hydroxy-21-(4-mesylphenyl)-11,6-(3-methoxyphenyl)-19-nor-17α-pregna-4,9-dien-20-yn-3-one] | 1.0 | 155 |
| COc1cccc(C2CC3(C)C(CCC3(O)C#Cc3cccc(C=NO)c3)C3CCC4=CC(=O)CCC4=C23)c1 (stereo not drawn) [Example 10, 3-E-[17-Hydroxy-11β-[3-(methoxy)phenyl)-19-nor-3-keto-17α-pregna-4,9-dien-20-yn-21-yl]benzaldoxime] | 10.4 | 148 |
